According to US5075304A, “Imidazoquinoxaline compounds and their preparation and use” (Novo Nordisk A/S, priority 1988, dated 1991):

What follows are compounds tested on benzodiazepine receptors (assay: in vivo displacement of 3H-flunitrazepam binding from brain benzodiazepine receptors). Conditions: dose reducing specific 3H-flunitrazepam binding in living mouse brain to 50% of control; test substance intraperitoneally 15 min before 3H-FNM i.v.
Set-up: species or system mice
Description: The pharmaceutical properties of the compounds of the invention can be illustrated by determining their capability for displacing radioactive labelled flunitrazepam from benzodiazepine receptors.
The displacement activity of the compounds of the invention may be found by determining the ED50 value. The ED50 value represents the dose (mg/kg) of a test substance which causes the specific binding of flunitrazepam to benzodiazepine receptors in a living brain to be reduced to 50% of the control value.
Such an in vivo test is carried out as follows:
Principle. Twenty minutes after a dose of ^3 H-flunitrazepam (^3 H-FNM) (200 μCi/kg, i.v.) the amount of specific ^3 H-FNM binding to brain benzodiazepine receptors has reached its maximal value.
Test procedure. Suspensions of test substances (2 mg/ml) are prepared in 5% Duphasol-X (TM Duphar, castor oil-ethylene oxide derivative for emulsifying and solubilizing oil and other water-insoluble substances) by sonification for 10 min using a Branson B15 microtip ultrasonifier (setting 7). Groups of three mice (female, NMR, 18-22 grams) are injected with the test substance at 100 mg/kg intraperitoneally. Fifteen minutes after test substance administration the mice are challenged with 4 μCi intravenously of ^3 H-FNM (70-90 Ci/mole) in 200 μl physiological saline. Twenty minutes after ^3 H-FNM administration mice are sacrificed by decapitation, the forebrains rapidly excised (within 30 sec) and homogenized in 12 ml of icecold 25 mM KH2 PO4, pH 7.1, using an Ultra-Turrax homogenizer fitted with an N 10 shaft. […] The amounts of radioactivity on the filters are determined by conventional scintillation counting. […]
Results. The ED50 value is determined from dose response curves. If only one dose of test substance is administered the ED50 value is calculated as follows, provided that the inhibition of specific binding is within the range of 25-75%: [formula] where Co is specific binding in controls and Cx is specific binding in mice treated with test substance.
Work on `O=c1c2c(-c3noc(C4CC4)n3)ncn2c2ccccc2n1Cc1ccccc1` [Compound 1, 5-benzyl-3-(5-cyclopropyl-1,2,4-oxadiazol-3-yl)-4,5-dihydro-4-oxo-imidazo[1,5-a]quinoxaline] yielded an ED50 of 1.2 mg/kg.
With `Cn1c(=O)c2c(-c3noc(C4CC4)n3)ncn2c2cccc(C(F)(F)F)c21` [Compound 2, 3-(5-cyclopropyl-1,2,4-oxadiazol-3-yl)-4,5-dihydro-5-methyl-4-oxo-6-trifluoromethyl-imidazo[1,5-a]quinoxaline] the ED50 was 0.09 mg/kg.
`Cn1c(=O)c2c(-c3nc(C4CC4)no3)ncn2c2cccc(C(F)(F)F)c21` [Compound 6, 3-(3-cyclopropyl-1,2,4-oxadiazol-5-yl)-4,5-dihydro-5-methyl-4-oxo-6-trifluoromethylimidazo[1,5-a]quinoxaline] gave an ED50 of 0.21 mg/kg.
